Assay results: US7566737B2 (Genfit, priority 2002, dated 2009)

Legend:
[1] = test system: LDL; assay: Protection against LDL oxidation by copper (conjugated diene formation); format: biochemical
Method: LDL oxidation is an important alteration and plays a predominant role in the establishment and development of atherosclerosis (Jurgens G et al., 1987). […] Unless otherwise indicated, the reagents were from Sigma (St Quentin, France). LDL were prepared according to the method described by (Havel R J et al., 1955). The solutions of test compounds were prepared at 10^−2 M concentration in bicarbonate buffer (pH 9) and diluted in PBS to obtain final concentrations ranging from 0.1 to 100 μM for a total ethanol concentration of […]. Prior to oxidation, EDTA was removed from the LDL preparation by dialysis. Oxidation then took place at 30° C. by addition of 100 μl of 16.6 μM CuSO4 solution to 160 μL of LDL (125 μg protein/ml) and 20 μl of a test compound solution. The formation of dienes, the species under observation, was followed by measuring optical density at 234 nm in the samples treated with the compounds but in the presence or absence of copper. Optical density at 234 nm was measured every 10 minutes for 8 hours in a thermostated spectrophotometer (Tecan Ultra 380). The compounds were considered to have antioxidant activity when they induced a longer lag phase and reduced the rate of oxidation and the amount of dienes formed in comparison with the control sample.

[2] = test system: HaCat cells; assay: Antioxidant properties on cell cultures (carboxy-H2DCFDA fluorescence, AAPH stress), keratinocytes; format: cell-based, human; settings: 25 μM for 24 h, AAPH 750 μM
In short: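 Cells were pretreated 24 h with compound at 25 μM, loaded 30 min at 37 °C with 25 μM carboxy-H2DCFDA, then stressed 30 min with 750 μM AAPH in phenol-red- and serum-free medium. ROS read as fluorescence ([…]); activity expressed as reduction in fluorescence signal.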

[3] = target: T1, human PPARα (Homo sapiens, UniProt Q07869); assay: PPARα/Gal4 transactivation system; format: cell-based
T1 construct: expressed in transfected cells; host or cells: RK13 or COS-7
T1 sequence (Q07869 239-466 limits assumed): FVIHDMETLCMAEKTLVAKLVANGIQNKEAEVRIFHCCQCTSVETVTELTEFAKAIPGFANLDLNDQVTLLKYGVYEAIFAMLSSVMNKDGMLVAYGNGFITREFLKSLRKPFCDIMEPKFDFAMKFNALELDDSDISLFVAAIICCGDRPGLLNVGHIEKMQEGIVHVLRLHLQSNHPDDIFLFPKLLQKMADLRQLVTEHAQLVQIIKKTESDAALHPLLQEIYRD
In short: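 Gal4-DBD fused to human PPAR ligand-binding (DEF) domain with Gal4-responsive luciferase reporter, in transfected RK13 or COS-7 cells. RK13: compounds at 10, 30, 100 μM or 1, 10, 100 μM for 24 h, dual-luciferase read, normalised to protein; COS-7: 24 h activation at 37° C in serum-free medium, luciferase read-out.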

induction factor (luminescent signal relative to untreated cells) ([3]; 1 μM)	induction factor (luminescent signal relative to untreated cells) ([3]; 10 μM)	maximum induction factor ([3]; at the 10 or 1 μm concentrations)	Compound	lag phase of conjugated diene formation ([1]; 10^−4M, FIG. 1-7, copper alone 82 minutes) [min]	antioxidant properties on cell cultures (in words) [2]	lag phase of conjugated diene formation ([1]; 10^−4M, FIG. 1-12, copper alone 120 minutes) [min]	rate of conjugated diene formation ([1]; 10^−4M, FIG. 1-13, copper alone 1.8)	maximum amount of conjugated dienes formed ([1]; FIG. 1-14, copper alone 372)
28	25		CSc1ccc(C(=O)/C=C/c2cc(C)c(OC(C)(C)C(=O)O)c(C)c2)cc1 [Compound 29, 1-[4-methylthiophenyl]-3-[3,5-dimethyl-4-carboxydimethylmethyloxyphenyl]prop-2-en-1-one]	135	antioxidant properties			
		34	Cc1cc(/C=C/C(=O)c2ccc(Br)cc2)cc(C)c1OC(C)(C)C(=O)O [Compound 41, 1-[4-bromophenyl]-3-[3,5-dimethyl-4-carboxydimethylmethyloxyphenyl]prop-2-en-1-one]		antioxidant properties	411	0.54 nmol/min/mg of LDL	71 nmol per mg of LDL
